Several values for one entry are separate records, joined by “and”; a condition that tells them apart may be missing. Equal entries are not always repeated. Where two headings read alike, the source gives them in different places.
Experiments:
[1] = tested on: Folsomia candida; conditions: cited from earlier work
[2] = tested on: Folsomia candida; conditions: 28 days, LUFA 2.2 soil
Experimental: Tests were performed in 100 ml glass jars, containing c. 30 g moist soil, using five replicate test jars for each exposure concentration. Each jar received ten 10–12 day old animals from age-synchronized cultures, after checking their health under a binocular microscope. The animals were fed with a few grains of dry baker’s yeast (Instant yeast from Algist Bruggeman N.V, Ghent, Belgium) weekly, in small amounts to avoid fungal growth. All incubations took place at 20 ± 2 °C at 75% Relative Humidity and a photoperiod of 16:8 dark: light hours. Test jars were weighed at the start, so that water loss could be monitored on a weekly basis and replenished with deionized water if needed. After exposure, all animals were extracted by flotation and pictures were taken to enable counting the number of surviving adults and juveniles produced using the software package ImageJ with a Cell Counter extension.
If no proper fit was obtained, LC50 values were calculated using the trimmed Spearman-Karber method (Hamilton et al. [1977]/78). No observed effect concentrations (NOEC) were determined applying a one-way ANOVA followed by a one-sided Dunnett’s post hoc test at a significance level of p < 0.05. All statistical analysis, except for the Trimmed Spearman Karber method, were run in SPSS 23.

[3] = cited from earlier work
[4] = tested on: Folsomia candida; assay: Multigeneration toxicity test (survival and reproduction) with springtails in spiked LUFA 2.2 soil; assay type: in vivo; conditions: for EC10 / EC50: number of juveniles
Experimental: F. candida were taken from cultures at the Department of Ecological Science at the Vrije Universiteit in Amsterdam. To obtain age-synchronized animals, adults from the culture were separated in boxes with a layer of plaster of Paris over a period of 2–3 days to lay eggs, after which they were removed. After removal of the adults, the eggs were incubated under a 12 h light/12 h dark regime at 20 °C and 75% relative humidity, where they hatched and grew. Juveniles of 10–12 days old were used for testing.
All tests were performed in the natural standard LUFA 2.2 (Lufa Speyer, Germany), a loamy sand with 1.59 ± 0.13% organic carbon, pH in 0.01 M CaCl2 of 5.4 ± 0.2, and water holding capacity (WHC) of 43.5 ± 2.8% of its dry weight.
Pure imidacloprid and thiacloprid (purity 98%) were kindly provided by Bayer CropScience, Monheim, Germany. Test concentrations of imidacloprid and thiacloprid were based on the results of earlier tests. Stock solution of both compounds in water were prepared, to spike the chemicals into the soil and at the same time bringing moisture content to the desired level of 50% of the WHC. To ensure complete thiacloprid dissolution, a small amount of acetone was added to the stock solution. This stock solution was used to spike soil with the highest test concentration and further diluted for spiking soil with the lower concentrations tested. Considering the low amount of acetone needed to make thiacloprid completely dissolve, no attempts were made to correct for that by adding acetone to the lower concentrations and control in the multigeneration test. All soils were thoroughly mixed to achieve a homogenous distribution of the test chemicals in the test soil.
Multigeneration tests started with a control, […] imidacloprid (0, 0.001, 0.003, 0.01, 0.03, 0.1, 0.3, 1.0 mg/kg dry soil) and 9 thiacloprid concentrations (0, 0.0015, 0.0045, 0.014, 0.041, 0.11, 0.31, 1.1, 3.3, 10.0 mg/kg dry soil). Batches of soil sufficient to perform three toxicity tests were prepared. After filling test jars for the parent generation exposure, the remaining spiked soil was stored in glass jars in a climate room at 20 °C for subsequent exposure of the next two generations. Moisture content of the spiked soil was checked regularly by weighing the jars, and replenished by adding deionized water if needed.
After 28 days (35 days for the second generation), the juveniles from the same exposure concentration were pooled in the same container with a moist plaster of Paris bottom and incubated overnight before being transferred to the next cycle of exposure. This experiment spanned a total of three continuous generations (referred to as F0, F1, and F2).

[5] = Chemical analysis of concentrations in test soil (LC-MS) and degradation half-life (DT50); assay type: physicochemical; conditions: for concentration, % of the nominal concentration: after 63 days
Experimental: Soil samples for chemical analysis of imidacloprid and thiacloprid in the test soil were taken at the start of the exposure of each new generation.
The analytical method to determine actual imidacloprid and thiacloprid concentrations in the test soils followed the principles of the QuEChERS extraction method modified from Anastasiades et al. ([2003]) and Payá et al. ([2007]). Briefly, the procedure used was as follows: approx. 1 g moist soil was taken for low concentration treatments (<1 mg/kg), and 50 µL internal standard (Imidacloprid-d4 and Thiacloprid-d4, 250 µg/L) was added. The sample was shaken for 20 min at 250 rpm with 2 mL methanol and centrifuged for 3 min at 1500 rpm. The methanol phase was passed through a granular Na2SO4 column, evaporated till dryness and the residue taken up in 3 mL acetonitrile. For high concentration samples (>1 mg/kg), the soil was first shaken with methanol and centrifuged. Subsequently an aliquot of 100 µL was taken and together with 50 µL internal standard (Imidacloprid-d4 and Thiacloprid-d4, 250 µg/L) added to 1 mL methanol, passed through a granular Na2SO4 column, evaporated to dryness and taken up in 3 mL acetonitrile. For clean-up, the acetonitrile extract was added to a tube filled with Supel QuE (C18 150 mg, PSA 150 mg, MgSO4 900 mg, Sigma Aldrich), shaken by hand for 2 min and centrifuged for 3 min at 3000 rpm. The supernatant was evaporated till dryness under gentle nitrogen stream and the residue taken up in 200 µL of a water-methanol (9/1) mixture.
Extracts were analyzed using LC-MS and quantified by isotope dilution (imidacloprid-d4 and thiacloprid-d4). The neonicotinoids were separated on a 100 × 2.1 mm, 2.6 µm Kinetex XB-C18 column (Phenomenex), applying a gradient of 5 mM ammonium formate pH 4 buffer and methanol, at a flow rate of 0.3 mL/min. The LC system (Agilent 1200 series) was coupled to a 6410 triple quadrupole MS (Agilent) using electrospray ionization (ESI) with data acquisition in positive ion mode. The transitions for imidacloprid were 256.1 > 175/209 (quantifier/qualifier) and for imidacloprid-d4 260 > 179. For thiacloprid the transitions were253.1 > 126/90 (quantifier/qualifier) with 257 > 126 for thiacloprid-d4.
Using data on the imidacloprid and thiacloprid concentrations measured at different times after spiking the soil in the multigeneration test, half-life (DT50) values were estimated assuming first order degradation kinetics. The equation C = C0 * e^−k*t was fitted to the data, with C = concentration at time t in days, C0 is concentration at t = 0 and k = degradation rate constant (day^−1). DT50 was derived as ln(2) / k.

[6] = number of juveniles, with 95% confidence interval
[7] = F0 generation, 28 days, LUFA 2.2 soil, nominal concentrations
[8] = F1 and F2 generations, 3.3 mg/kg dry soil
[9] = F1 generation, 35 days, soil spiked at start of F0, nominal concentrations
[10] = F2 generation, 28 days, soil spiked at start of F0, nominal concentrations
[11] = F2 generation, 28 days, soil spiked at start of F0, nominal concentrations, listed as thiacloprid
[12] = 28-day exposure, Lufa 2.2, ~3.0% OM, pure, ref De Lima e Silva et al. (submitted)

For `OB(O)O` [Boric acid, boric acid], the EC50 ([1]; OECD artificial soil, value mentioned in the test guideline, ref OECD (2009)) is given as 100 mg/kg dry soil, the NOEC [2] is given as 20 mg/kg dry soil and the EC10 [2, 6] is given as 29 (25–33) mg/kg dry soil. For the same compound, the EC50 [2, 6] was 51 (47–54) mg/kg dry soil.

In the case of `N#C/N=C1\SCCN1Cc1ccc(Cl)nc1` [Thiacloprid, thiacloprid], the field-based half-lives ([3]; field, ref European Commission (2004)) is given as 9 to 27 days, the half-life in soil ([3]; laboratory tests, ref Goulson (2013), Bonmatin et al. (2015)) is given as 81.6 to 1780 h and the “factor less persistent in soil than imidacloprid” value ([3]; ref Goulson (2013), Bonmatin et al. (2015)) is given as 10. For the same compound, the effect on reproduction ([4]; F0 generation, 3.3 mg/kg dry soil) was “significantly reduced”, the NOEC [4, 7] was 0.11 mg/kg dry soil and the LC50 ([4]; F0 generation, 28 days, adult survival, LUFA 2.2 soil, nominal concentrations) was 9.0 mg/kg dry soil. For the same compound, the EC10 [4, 7] was 0.23 mg/kg dry soil, the EC50 [4, 7] was 1.5 mg/kg dry soil and the “juveniles produced, on average” value ([4]; F0 generation, highest concentration tested 10 mg/kg dry soil) was 3 per jar. For the same compound, the “effects on juvenile numbers” value [4, 8] was “no effects”, the springtail reproduction affected [4, 8] was “less than 50%” and the EC50 [4, 9] was > 3.33 mg/kg dry soil and > 3.3 mg/kg dry soil. For the same compound, the LC50 [4, 9] was > 3.33 mg/kg dry soil and > 3.3 mg/kg dry soil, the NOEC [4, 9] was ≥ 3.3 mg/kg dry soil and the EC10 [4, 10] was >3.3 mg/kg dry soil. For the same compound, the EC50 [4, 10] was >3.3 mg/kg dry soil, the EC50 [4, 11] was > 3.33 mg/kg dry soil and > 3.3 mg/kg dry soil and the LC50 [4, 10] was >3.3 mg/kg dry soil. The LC50 [4, 11] was > 3.33 mg/kg dry soil and > 3.3 mg/kg dry soil, the NOEC [4, 11] was 1.1 mg/kg dry soil and the “LC50, range over generations” value ([4]; range over the three generations, Lufa 2.2, pure compound, this study) was >3.33-9.0 mg/kg dry soil. The EC50 [1, 12] was 1.7-2.4 mg/kg dry soil, the LC50 [1, 12] was 4.3-4.9 mg/kg dry soil and the half-life ([5]; LUFA 2.2 soil (spiked natural loamy sand), pH 5.4, LUFA 2.2 soil, 20 °C, first order kinetics, read-out: DT50 (half-life) for degradation in test soil) was 240 to 288 h. For the same compound, the “concentration, % of nominal” value ([5]; LUFA 2.2 soil, after 28 days, 1.1 and 3.3 mg/kg dry soil) was 91.2–101% and 90–100%, the “concentration, % of the nominal values” ([5]; LUFA 2.2 soil, after 63 days of incubation, all concentrations) was 7.6–22.0% and the “concentration, % of the nominal concentration” value ([5]; LUFA 2.2 soil, 0.0137 mg/kg) was 22.0%. The “concentration, % of the nominal concentration” value ([5]; LUFA 2.2 soil, 0.113 mg/kg) was 19.8%, the “concentration measured in soil” value ([5]; T=28, nominal 1.11, mean ± SD (n=3)) was 1.1±0.35 mg/kg dry soil and the “concentration measured in soil” value ([5]; T=28, nominal 3.33, mean ± SD (n=3)) was 3.0±0.42 mg/kg dry soil. For the same compound, the “concentration measured in soil” value ([5]; T=28, nominal 10, mean ± SD (n=3)) was 5.7±0.27 mg/kg dry soil, the “concentration measured in soil” value ([5]; T=63 d, nominal 0.014, mean ± SD (n=3)) was 0.003±0.0002 mg/kg dry soil and the “concentration measured in soil” value ([5]; T=63 d, nominal 0.113, mean ± SD (n=3)) was 0.022±0.00044 mg/kg dry soil. The “concentration measured in soil” value ([5]; T=63 d, nominal 1.11, mean ± SD (n=3)) was 0.12±0.0054 mg/kg dry soil, the “concentration measured in soil” value ([5]; T=63 d, nominal 3.33, mean ± SD (n=3)) was 0.26±0.0038 mg/kg dry soil and the “concentration measured in soil” value ([5]; T=63 d, nominal 10, mean ± SD (n=3)) was 0.76±0.015 mg/kg dry soil.

From paper PMC5397431, “Multigeneration toxicity of imidacloprid and thiacloprid to Folsomia candida” (Ecotoxicology (London, England), 2017)
